This note sets out measurements from PMC7553383 (ACS Chemical Neuroscience, 2020).

For one test, the target named is T1, GIRK1/4 channels (Homo sapiens, UniProt P48544+P48549).
T1 sequence (P48549 1-501): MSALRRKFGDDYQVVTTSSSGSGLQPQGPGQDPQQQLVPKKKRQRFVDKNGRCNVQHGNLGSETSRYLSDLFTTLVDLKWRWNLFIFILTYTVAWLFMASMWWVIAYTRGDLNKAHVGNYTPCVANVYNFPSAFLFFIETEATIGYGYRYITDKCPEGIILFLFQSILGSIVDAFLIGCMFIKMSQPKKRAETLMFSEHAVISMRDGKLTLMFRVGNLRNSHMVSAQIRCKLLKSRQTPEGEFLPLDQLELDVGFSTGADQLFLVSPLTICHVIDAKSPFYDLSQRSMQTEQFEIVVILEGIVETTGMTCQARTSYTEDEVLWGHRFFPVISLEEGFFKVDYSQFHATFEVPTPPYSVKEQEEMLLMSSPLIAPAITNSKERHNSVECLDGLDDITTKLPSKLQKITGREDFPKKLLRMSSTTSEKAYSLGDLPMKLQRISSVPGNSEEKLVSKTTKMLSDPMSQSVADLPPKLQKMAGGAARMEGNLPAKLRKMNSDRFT
T1 sequence (P48544 1-419): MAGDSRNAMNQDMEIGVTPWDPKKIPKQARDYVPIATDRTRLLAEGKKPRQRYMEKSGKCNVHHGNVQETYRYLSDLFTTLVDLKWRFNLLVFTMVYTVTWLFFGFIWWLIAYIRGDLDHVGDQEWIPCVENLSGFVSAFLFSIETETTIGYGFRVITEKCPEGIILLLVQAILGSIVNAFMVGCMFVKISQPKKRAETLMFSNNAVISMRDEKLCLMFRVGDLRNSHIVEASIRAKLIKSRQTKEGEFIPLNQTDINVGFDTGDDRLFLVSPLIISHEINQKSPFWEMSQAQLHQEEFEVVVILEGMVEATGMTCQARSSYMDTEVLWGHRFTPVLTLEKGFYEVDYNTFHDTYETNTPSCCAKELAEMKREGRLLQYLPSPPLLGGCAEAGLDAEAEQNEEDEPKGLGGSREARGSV
In words: Ligand-induced GIRK channel block in oocytes expressing GIRK channels in the absence of D2R. The test is classed as cell-based. The conditions noted are these: for Current amplitude following application of ligand in the absence of D2R expression: oocytes injected with GIRK1 and GIRK4; for Ligand-induced GIRK channel block: 30 μM ligand, oocytes without D2R. An excerpt: Figure S1. Effect of competing ligands on GIRK currents in the absence of D2R expression. Current
Figure S2. Intrinsic activities of aripiprazole analogues at WT D2R. Agonist responses of SWR-1-8, SV-III- […]

A further test addresses T2, D2R (Homo sapiens, UniProt P14416).
T2 construct: expressed in transfected cells
In words: BRET beta-arrestin2 recruitment curve-shift assay in transfected HEK293 cells. It counts as cell-based. The conditions noted are these: 5 min preincubation with antagonist before dopamine.

In test [1] the target is T3, D2R WT (Homo sapiens, UniProt P14416). The test can be described thus: cell-based.
T3 sequence (P14416 whole entry): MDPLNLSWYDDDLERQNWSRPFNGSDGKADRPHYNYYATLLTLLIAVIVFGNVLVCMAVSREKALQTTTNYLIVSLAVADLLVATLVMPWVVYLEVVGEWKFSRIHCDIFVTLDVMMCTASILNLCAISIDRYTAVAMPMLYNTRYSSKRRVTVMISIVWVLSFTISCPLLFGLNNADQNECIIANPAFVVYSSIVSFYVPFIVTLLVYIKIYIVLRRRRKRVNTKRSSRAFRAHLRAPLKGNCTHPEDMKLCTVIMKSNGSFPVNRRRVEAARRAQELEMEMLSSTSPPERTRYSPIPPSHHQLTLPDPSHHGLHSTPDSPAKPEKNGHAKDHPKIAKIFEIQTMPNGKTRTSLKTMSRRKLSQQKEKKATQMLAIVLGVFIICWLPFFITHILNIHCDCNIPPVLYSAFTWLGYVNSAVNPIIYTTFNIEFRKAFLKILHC
Test [2] has as its target T3, D2R WT. The test can be described thus: G protein-coupled inward rectifier potassium (GIRK) channel activation assay in Xenopus oocytes coexpressing D2R, RGS4 and GIRK1/4.

T2 sequence (P14416 whole entry): as above

With `COc1ccccc1N1CCN(CCCCOc2ccc3c(c2)NC(=O)CC3)CC1` [SV-III-130], on GIRK1/4 channels (1 µM ligand), the “Current amplitude following application of ligand in the absence of D2R expression” value (from here on “Current amplitude following application”) amounted to 1.00 ± 0.02. Moreover, the “Ligand-induced GIRK channel block” value at GIRK1/4 channels was < 10%.
As usually defined, the Ki is the dissociation constant of the complex between target and ligand, obtained from inhibition or displacement. Higher therefore signals lower affinity. For orientation: Kd means the concentration at which binding is half-saturated. Lower therefore signals tighter binding. The koff is a measure of how fast the partners let go of each other. A higher koff goes with fast dissociation. Consider `COc1ccccc1N1CCN(CCCOc2ccc3c(c2)NC(=O)CC3)CC1` [SWR-1-8], for which the “Ligand-induced GIRK channel block” value on GIRK1/4 channels is listed as < 10%. Besides, the “Current amplitude following application” value at GIRK1/4 channels (30 µM ligand) is 0.99 ± 0.06. In addition, at D2R, the “mode of antagonism of DA-induced beta-arrestin2 recruitment” value was “competitive antagonism”. The compound also had a Ki at D2R WT [1] of 9.77 nM. On D2R WT [2], this compound had a Kd of 50.1 nM and a koff of 0.017 ± 0.002 s⁻¹. In addition, the “intrinsic activity in the GIRK activation assay (in words)” value at D2R WT [2] (WT D2R, normalized to 1 μM DA) is “antagonists/inverse agonists”.
Take `COc1ccccc1N1CCN(CCCCCOc2ccc3c(c2)NC(=O)CC3)CC1` [SWR-1-14]: the “Ligand-induced GIRK channel block” value on GIRK1/4 channels is < 10%. Moreover, the “Current amplitude following application” value at GIRK1/4 channels (30 µM ligand) worked out at 0.90 ± 0.01.
